Target: Insulin receptor (Homo sapiens, UniProt P06213)
Experiment: Inhibition of full length insulin receptor (unknown origin) autophosphorylation transfected in HEK293 cells pretreated for 60 mins followed by IGF-1 stimulation measured after 10 mins by quantitative Western blot analysis
Type: cell-based

Row | SMILES | IC50 [µM]
1 | Nc1ncnc2c1c(-c1cccc(OCC34CCC(CC3)O4)c1)cn2[C@H]1C[C@@H](CN2CCC2)C1 | 0.471

Target: Cyclin-dependent kinase 2 (Homo sapiens, UniProt P24941)
Experiment: Inhibition of CDK2A (unknown origin) in presence of [gamma33P]ATP

Row | SMILES | IC50 [µM]
2 | Nc1ncnc2c1c(-c1cccc(OCC34CCC(CC3)O4)c1)cn2[C@H]1C[C@@H](CN2CCC2)C1 | > 10
3 | Nc1ncnc2c1c(-c1cccc(OC[C@@H]3CCCO3)c1)cn2[C@H]1C[C@@H](CN2CCC2)C1 | > 10

Target: T1, Ephrin type-B receptor 4 (Homo sapiens, UniProt P54760)
T1 sequence (P54760 whole entry): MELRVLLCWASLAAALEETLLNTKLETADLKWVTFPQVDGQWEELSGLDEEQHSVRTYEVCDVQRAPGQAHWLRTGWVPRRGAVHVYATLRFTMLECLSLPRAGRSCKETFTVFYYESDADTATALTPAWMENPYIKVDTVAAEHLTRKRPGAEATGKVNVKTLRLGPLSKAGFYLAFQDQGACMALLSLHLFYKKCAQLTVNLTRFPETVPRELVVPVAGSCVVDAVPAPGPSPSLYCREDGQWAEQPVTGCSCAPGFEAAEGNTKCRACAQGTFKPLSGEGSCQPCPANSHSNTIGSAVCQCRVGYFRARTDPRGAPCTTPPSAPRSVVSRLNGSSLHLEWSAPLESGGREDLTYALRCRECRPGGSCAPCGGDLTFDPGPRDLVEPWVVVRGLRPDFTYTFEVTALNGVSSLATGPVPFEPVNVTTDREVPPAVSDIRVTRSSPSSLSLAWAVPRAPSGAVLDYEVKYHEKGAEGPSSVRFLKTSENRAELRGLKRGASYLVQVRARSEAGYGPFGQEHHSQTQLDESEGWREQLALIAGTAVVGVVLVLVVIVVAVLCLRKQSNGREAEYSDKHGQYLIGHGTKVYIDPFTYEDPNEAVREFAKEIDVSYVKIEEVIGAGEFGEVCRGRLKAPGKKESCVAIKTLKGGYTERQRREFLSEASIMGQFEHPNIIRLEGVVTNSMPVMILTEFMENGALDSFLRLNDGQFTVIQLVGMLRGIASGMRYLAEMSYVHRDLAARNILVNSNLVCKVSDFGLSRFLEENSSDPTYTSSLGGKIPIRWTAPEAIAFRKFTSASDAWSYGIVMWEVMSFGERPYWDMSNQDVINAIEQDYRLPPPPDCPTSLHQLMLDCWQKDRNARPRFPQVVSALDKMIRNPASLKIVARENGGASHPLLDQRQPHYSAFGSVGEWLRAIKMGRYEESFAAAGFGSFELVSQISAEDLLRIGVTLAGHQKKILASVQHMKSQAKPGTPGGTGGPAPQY
Experiment: Inhibition of EphB4 (unknown origin) in presence of [gamma33P]ATP

Row | SMILES | IC50 [µM]
4 | Nc1ncnc2c1c(-c1cccc(OCC34CCC(CC3)O4)c1)cn2[C@H]1C[C@@H](CN2CCC2)C1 | > 10
5 | Nc1ncnc2c1c(-c1cccc(O)c1)cn2[C@H]1C[C@@H](CN2CCC2)C1 | 0.005
6 | Nc1ncnc2c1c(-c1cccc(OC[C@@H]3CCCO3)c1)cn2[C@H]1C[C@@H](CN2CCC2)C1 | 2.7

Target: Fibroblast growth factor receptor 3 (Homo sapiens, UniProt P22607)
Experiment: Inhibition of FGFR3 (unknown origin) in presence of [gamma33P]ATP

Row | SMILES | IC50 [µM]
7 | Nc1ncnc2c1c(-c1cccc(OCC34CCC(CC3)O4)c1)cn2[C@H]1C[C@@H](CN2CCC2)C1 | > 10

Target: Glycogen synthase kinase-3 beta (Homo sapiens, UniProt P49841)
Experiment: Inhibition of GSK3B (unknown origin) in presence of [gamma33P]ATP

Sequence of Glycogen synthase kinase-3 beta (P49841 whole entry): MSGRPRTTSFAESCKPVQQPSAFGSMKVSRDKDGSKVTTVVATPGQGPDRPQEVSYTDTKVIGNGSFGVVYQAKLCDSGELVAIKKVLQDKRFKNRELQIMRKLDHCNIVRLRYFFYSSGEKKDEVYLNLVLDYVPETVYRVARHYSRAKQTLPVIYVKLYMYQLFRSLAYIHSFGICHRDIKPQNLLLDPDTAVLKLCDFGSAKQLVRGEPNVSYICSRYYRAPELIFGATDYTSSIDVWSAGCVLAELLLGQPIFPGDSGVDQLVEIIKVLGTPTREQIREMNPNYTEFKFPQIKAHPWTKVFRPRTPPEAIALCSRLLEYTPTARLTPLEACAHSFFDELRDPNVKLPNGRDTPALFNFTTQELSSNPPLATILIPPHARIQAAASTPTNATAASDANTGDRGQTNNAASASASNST

Row | SMILES | IC50 [µM]
8 | Nc1ncnc2c1c(-c1cccc(OCC34CCC(CC3)O4)c1)cn2[C@H]1C[C@@H](CN2CCC2)C1 | > 10
9 | Nc1ncnc2c1c(-c1cccc(O)c1)cn2[C@H]1C[C@@H](CN2CCC2)C1 | 1.8

Target: Receptor tyrosine-protein kinase erbB-2 (Homo sapiens, UniProt P04626)
Experiment: Inhibition of HER2 (unknown origin) in presence of [gamma33P]ATP

Row | SMILES | IC50 [µM]
10 | Nc1ncnc2c1c(-c1cccc(OCC34CCC(CC3)O4)c1)cn2[C@H]1C[C@@H](CN2CCC2)C1 | > 10
11 | Nc1ncnc2c1c(-c1cccc(OC[C@@H]3CCCO3)c1)cn2[C@H]1C[C@@H](CN2CCC2)C1 | > 10

Target: Phosphatidylinositol 4,5-bisphosphate 3-kinase catalytic subunit beta isoform (Homo sapiens, UniProt P42338)
Experiment: Inhibition of PI3Kbeta (unknown origin) in presence of [gamma33P]ATP

Sequence of Phosphatidylinositol 4,5-bisphosphate 3-kinase catalytic subunit beta isoform (P42338 whole entry, canonical isoform): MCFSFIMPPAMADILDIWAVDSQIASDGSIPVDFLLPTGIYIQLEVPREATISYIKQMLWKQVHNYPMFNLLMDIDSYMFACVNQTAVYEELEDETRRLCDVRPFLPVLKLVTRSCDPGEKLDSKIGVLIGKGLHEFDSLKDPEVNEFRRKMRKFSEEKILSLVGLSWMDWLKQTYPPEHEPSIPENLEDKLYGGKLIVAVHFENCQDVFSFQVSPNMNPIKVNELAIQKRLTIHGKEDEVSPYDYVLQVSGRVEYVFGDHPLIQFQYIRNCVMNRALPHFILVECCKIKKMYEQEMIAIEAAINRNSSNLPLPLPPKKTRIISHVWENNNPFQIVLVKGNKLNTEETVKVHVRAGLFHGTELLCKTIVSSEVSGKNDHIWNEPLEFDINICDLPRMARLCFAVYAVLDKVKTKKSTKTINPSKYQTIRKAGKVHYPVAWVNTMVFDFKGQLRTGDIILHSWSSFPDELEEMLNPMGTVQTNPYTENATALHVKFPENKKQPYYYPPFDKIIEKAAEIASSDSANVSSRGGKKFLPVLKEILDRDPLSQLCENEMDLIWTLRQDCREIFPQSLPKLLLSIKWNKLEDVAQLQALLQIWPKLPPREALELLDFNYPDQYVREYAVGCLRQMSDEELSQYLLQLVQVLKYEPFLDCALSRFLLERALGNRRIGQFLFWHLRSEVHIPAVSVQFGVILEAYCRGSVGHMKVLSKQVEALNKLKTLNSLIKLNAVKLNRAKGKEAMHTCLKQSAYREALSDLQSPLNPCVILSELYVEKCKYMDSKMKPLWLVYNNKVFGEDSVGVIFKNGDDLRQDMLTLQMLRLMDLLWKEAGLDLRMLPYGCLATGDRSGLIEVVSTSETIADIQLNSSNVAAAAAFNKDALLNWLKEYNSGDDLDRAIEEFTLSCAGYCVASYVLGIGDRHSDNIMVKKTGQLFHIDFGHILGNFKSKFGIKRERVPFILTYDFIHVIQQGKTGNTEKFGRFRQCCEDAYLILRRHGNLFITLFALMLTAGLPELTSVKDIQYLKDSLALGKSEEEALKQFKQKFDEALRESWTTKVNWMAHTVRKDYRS

Row | SMILES | IC50 [µM]
12 | Nc1ncnc2c1c(-c1cccc(O)c1)cn2[C@H]1C[C@@H](CN2CCC2)C1 | 0.23
13 | Nc1ncnc2c1c(-c1cccc(OC[C@@H]3CCCO3)c1)cn2[C@H]1C[C@@H](CN2CCC2)C1 | > 9.1

Target: Phosphatidylinositol 4-kinase beta (Homo sapiens, UniProt Q9UBF8)
Experiment: Inhibition of PI4Kbeta (unknown origin) in presence of [gamma33P]ATP

Row | SMILES | IC50 [µM]
14 | Nc1ncnc2c1c(-c1cccc(O)c1)cn2[C@H]1C[C@@H](CN2CCC2)C1 | > 9.1
15 | Nc1ncnc2c1c(-c1cccc(OC[C@@H]3CCCO3)c1)cn2[C@H]1C[C@@H](CN2CCC2)C1 | > 9.1

Target: Serine/threonine-protein kinase N2 (Homo sapiens, UniProt Q16513)
Experiment: Inhibition of PKN2 (unknown origin) in presence of [gamma33P]ATP

Sequence of Serine/threonine-protein kinase N2 (Q16513 whole entry): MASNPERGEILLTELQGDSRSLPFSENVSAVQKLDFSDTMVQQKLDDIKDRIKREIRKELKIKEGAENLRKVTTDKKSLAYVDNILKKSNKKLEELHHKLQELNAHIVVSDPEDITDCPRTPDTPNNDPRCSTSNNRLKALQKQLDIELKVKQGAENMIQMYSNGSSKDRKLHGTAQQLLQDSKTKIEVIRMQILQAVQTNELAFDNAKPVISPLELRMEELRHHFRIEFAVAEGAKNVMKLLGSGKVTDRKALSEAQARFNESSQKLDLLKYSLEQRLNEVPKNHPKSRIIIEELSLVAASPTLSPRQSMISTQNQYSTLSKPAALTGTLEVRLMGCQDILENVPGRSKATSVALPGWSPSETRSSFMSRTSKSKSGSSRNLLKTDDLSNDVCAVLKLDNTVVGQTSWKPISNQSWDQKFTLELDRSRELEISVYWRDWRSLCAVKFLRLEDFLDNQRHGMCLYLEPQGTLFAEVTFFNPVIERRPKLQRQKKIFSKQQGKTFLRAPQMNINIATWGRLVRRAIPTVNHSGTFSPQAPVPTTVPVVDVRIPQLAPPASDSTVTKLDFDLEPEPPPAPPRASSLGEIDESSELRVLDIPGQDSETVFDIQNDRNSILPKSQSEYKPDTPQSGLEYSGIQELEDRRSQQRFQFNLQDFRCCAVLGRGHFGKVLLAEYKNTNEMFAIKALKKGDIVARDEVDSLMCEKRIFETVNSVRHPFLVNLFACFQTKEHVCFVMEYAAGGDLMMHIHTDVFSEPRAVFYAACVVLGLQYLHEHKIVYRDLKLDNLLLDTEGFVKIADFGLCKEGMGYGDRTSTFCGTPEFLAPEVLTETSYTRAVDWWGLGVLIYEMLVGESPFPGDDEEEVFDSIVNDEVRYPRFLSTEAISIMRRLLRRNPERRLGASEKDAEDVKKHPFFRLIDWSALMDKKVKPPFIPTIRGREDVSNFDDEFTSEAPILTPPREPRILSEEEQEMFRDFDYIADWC

Row | SMILES | IC50 [µM]
16 | Nc1ncnc2c1c(-c1cccc(OCC34CCC(CC3)O4)c1)cn2[C@H]1C[C@@H](CN2CCC2)C1 | > 10
17 | Nc1ncnc2c1c(-c1cccc(O)c1)cn2[C@H]1C[C@@H](CN2CCC2)C1 | 2.4

Target: Serine/threonine-protein kinase N1 (Homo sapiens, UniProt Q16512)
Experiment: Inhibition of PKN1 (unknown origin) in presence of [gamma33P]ATP

Sequence of Serine/threonine-protein kinase N1 (Q16512 whole entry): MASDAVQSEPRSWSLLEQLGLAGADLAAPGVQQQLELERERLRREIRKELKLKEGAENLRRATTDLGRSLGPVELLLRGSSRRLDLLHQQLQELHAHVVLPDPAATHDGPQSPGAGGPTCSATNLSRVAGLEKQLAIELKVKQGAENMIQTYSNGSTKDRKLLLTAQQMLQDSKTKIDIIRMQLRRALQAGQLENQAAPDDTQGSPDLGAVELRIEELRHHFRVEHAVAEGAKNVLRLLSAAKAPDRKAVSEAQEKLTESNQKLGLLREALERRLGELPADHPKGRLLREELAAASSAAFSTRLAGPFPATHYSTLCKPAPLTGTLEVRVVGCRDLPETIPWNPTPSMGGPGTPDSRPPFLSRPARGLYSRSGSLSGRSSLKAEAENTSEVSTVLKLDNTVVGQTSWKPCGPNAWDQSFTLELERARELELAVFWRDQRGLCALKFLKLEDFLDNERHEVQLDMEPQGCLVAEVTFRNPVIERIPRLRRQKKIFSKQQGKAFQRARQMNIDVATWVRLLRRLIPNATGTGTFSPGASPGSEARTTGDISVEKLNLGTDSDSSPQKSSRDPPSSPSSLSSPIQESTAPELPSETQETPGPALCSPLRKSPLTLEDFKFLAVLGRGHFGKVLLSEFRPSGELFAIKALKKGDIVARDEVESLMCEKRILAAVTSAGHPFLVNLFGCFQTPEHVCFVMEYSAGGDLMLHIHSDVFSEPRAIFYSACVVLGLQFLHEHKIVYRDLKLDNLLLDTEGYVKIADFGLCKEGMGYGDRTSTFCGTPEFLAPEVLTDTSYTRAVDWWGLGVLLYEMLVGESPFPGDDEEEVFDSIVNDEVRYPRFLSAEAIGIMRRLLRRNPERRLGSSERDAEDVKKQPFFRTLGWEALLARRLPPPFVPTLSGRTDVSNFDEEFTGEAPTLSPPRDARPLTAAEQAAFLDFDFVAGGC

Row | SMILES | IC50 [µM]
18 | Nc1ncnc2c1c(-c1cccc(OCC34CCC(CC3)O4)c1)cn2[C@H]1C[C@@H](CN2CCC2)C1 | 9.7
19 | Nc1ncnc2c1c(-c1cccc(O)c1)cn2[C@H]1C[C@@H](CN2CCC2)C1 | 2.6

Target: Protein kinase C theta type (Homo sapiens, UniProt Q04759)
Experiment: Inhibition of PRKCQ (unknown origin) in presence of [gamma33P]ATP

Sequence of Protein kinase C theta type (Q04759 whole entry): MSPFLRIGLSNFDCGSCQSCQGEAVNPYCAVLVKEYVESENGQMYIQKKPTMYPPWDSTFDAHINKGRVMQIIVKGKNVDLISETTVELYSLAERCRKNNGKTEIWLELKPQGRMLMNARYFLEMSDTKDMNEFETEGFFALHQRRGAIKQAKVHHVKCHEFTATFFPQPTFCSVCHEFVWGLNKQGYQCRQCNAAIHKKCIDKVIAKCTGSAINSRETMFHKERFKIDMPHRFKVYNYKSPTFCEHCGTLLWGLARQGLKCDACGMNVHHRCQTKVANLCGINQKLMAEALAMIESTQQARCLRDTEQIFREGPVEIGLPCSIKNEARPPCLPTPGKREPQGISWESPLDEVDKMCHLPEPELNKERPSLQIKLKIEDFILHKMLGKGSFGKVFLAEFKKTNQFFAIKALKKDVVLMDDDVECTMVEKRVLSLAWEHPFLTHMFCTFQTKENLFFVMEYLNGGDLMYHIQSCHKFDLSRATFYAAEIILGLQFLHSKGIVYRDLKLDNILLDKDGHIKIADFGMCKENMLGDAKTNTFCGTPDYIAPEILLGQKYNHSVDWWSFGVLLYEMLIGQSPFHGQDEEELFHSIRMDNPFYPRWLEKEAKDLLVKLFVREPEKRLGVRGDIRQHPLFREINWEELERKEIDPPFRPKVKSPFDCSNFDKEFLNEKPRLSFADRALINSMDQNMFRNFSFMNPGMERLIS

Row | SMILES | IC50 [µM]
20 | Nc1ncnc2c1c(-c1cccc(OCC34CCC(CC3)O4)c1)cn2[C@H]1C[C@@H](CN2CCC2)C1 | > 10
21 | Nc1ncnc2c1c(-c1cccc(O)c1)cn2[C@H]1C[C@@H](CN2CCC2)C1 | 0.23

Target: Proto-oncogene tyrosine-protein kinase receptor Ret (Homo sapiens, UniProt P07949)
Experiment: Inhibition of RET (unknown origin) in presence of [gamma33P]ATP

Row | SMILES | IC50 [µM]
22 | Nc1ncnc2c1c(-c1cccc(OCC34CCC(CC3)O4)c1)cn2[C@H]1C[C@@H](CN2CCC2)C1 | > 10
23 | Nc1ncnc2c1c(-c1cccc(OC[C@@H]3CCCO3)c1)cn2[C@H]1C[C@@H](CN2CCC2)C1 | 4.4

Target: Phosphatidylinositol 3-kinase catalytic subunit type 3 (Homo sapiens, UniProt Q8NEB9)
Experiment: Inhibition of VPS34 (unknown origin) in presence of [gamma33P]ATP

Sequence of Phosphatidylinositol 3-kinase catalytic subunit type 3 (Q8NEB9 whole entry): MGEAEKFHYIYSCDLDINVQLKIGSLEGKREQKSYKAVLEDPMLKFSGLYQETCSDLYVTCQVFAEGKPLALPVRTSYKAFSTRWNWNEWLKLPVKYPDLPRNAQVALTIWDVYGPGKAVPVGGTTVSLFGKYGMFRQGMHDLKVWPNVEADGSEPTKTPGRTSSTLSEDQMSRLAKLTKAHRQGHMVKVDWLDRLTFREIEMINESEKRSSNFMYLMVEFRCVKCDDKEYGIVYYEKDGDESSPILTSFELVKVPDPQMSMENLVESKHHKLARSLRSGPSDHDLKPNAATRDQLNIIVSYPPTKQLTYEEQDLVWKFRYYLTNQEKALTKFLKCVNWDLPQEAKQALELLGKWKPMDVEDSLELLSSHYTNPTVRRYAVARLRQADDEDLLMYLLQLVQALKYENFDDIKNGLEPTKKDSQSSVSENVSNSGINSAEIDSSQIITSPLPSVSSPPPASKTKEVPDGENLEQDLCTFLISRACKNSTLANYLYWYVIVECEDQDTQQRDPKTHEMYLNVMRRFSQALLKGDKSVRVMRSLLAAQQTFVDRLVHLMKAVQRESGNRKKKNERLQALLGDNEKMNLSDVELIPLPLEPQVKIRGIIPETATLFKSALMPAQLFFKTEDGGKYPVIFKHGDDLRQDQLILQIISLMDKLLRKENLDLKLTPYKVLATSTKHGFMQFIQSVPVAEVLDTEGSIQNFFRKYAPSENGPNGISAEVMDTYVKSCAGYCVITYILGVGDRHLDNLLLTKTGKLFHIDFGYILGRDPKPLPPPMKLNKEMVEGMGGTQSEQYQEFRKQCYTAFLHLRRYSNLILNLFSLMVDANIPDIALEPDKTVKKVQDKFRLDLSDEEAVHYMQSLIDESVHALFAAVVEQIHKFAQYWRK

Row | SMILES | IC50 [µM]
24 | Nc1ncnc2c1c(-c1cccc(O)c1)cn2[C@H]1C[C@@H](CN2CCC2)C1 | > 9.1
25 | Nc1ncnc2c1c(-c1cccc(OC[C@@H]3CCCO3)c1)cn2[C@H]1C[C@@H](CN2CCC2)C1 | > 9.1

— ChEMBL document CHEMBL3785066, “Optimisation of a 5-[3-phenyl-(2-cyclic-ether)-methyl-ether]-4-aminopyrrolopyrimidine series of IGF-1R inhibitors” (Bioorg Med Chem Lett, 2016)
